Laboratory results reported in patent US10370355B2, “Tetrahydroisoquinoline derivatives” (UCB Biopharma SPRL, priority 2016, dated 2019).

Target: T1, dopamine D1 receptor (Homo sapiens, UniProt P21728)
T1 construct: host or cells: LMtk (Ltk-) mouse fibroblast cells
Assay: cAMP HTRF potentiation assay (presence of EC20 dopamine)
Type: cell-based
Conditions: potentiation of cAMP in presence of EC20 dopamine (1.1 nM); LMtk (Ltk-) mouse fibroblast cells expressing the dopamine D1 receptor
Source text: The present assay allows to measure respectively the effects of compounds of the Examples in the absence of dopamine (“activation assay”) and the effects of compounds of the Examples in the presence of dopamine (“potentiation assay”).
The potentiation assay measures the ability of compounds to increase the levels of cAMP produced by a low-threshold concentration of dopamine. The concentration of dopamine used ([EC20]) is designed to produce 20% stimulation compared to the maximal response (100%) seen with increasing the concentration of dopamine. To measure this potentiation we incubate increasing concentrations of the compound with the [EC2O] of dopamine and measure the potentiation as increases in cAMP production. The pEC50 of a compound is the −log 10 of the concentration of the compound which produces 50% of the potentiation of the cAMP levels and the Erel is the relative efficacy, defined as the maximal % potentiation produced by the compound compared to the maximal response produced by increasing concentrations of dopamine (Erel of 1=dopamine maximum response).
Cells were cultured at 37° C. in a humidified atmosphere of 5% CO2. Cells were grown in DMEM-F12+GlutaMAX™-I medium (GIBCO®, Invitrogen, Merelbeke, Belgium) containing 10% fetal bovine serum (BioWhittaker®, Lonza, Verviers, Belgium), 400 μg/mL Geneticin (GIBCO®), 100 IU/mL Penicillin and 100 IU/mL Streptomycin (Pen-Strep solution, BioWhittaker®).
The measurement of changes in intracellular cyclic adenosinemonophopshpate (cAMP) was determined using the HTRF cAMP dynamic assay kit from CisBio (Codolet, France). Using homogenous time-resolved fluoresence technology, the assay is based on competition between native cAMP produced by cells and cAMP labelled with the dye d2. The tracer binding is determined by an anti-cAMP antibody labeled with cryptate. The effects of the compound alone (agonism) was determined by performing the assay in the absence of dopamine, whilst the effect of the compound as a positive allosteric modulator (PAM) was determined in the presence of an EC20 concentration of dopamine. Cells (20,000 per well) are incubated in 384 plates for 1 hour at room temperature in a final volume of 20 μLHBSS (Lonza, with calcium, magnesium and HEPES buffer 20 mM, pH 7.4) containing: isobutyl methylxanthine (Sigma, 0.1 mM final), varying concentrations of test compound (typically […] to 10^−4.5M) in the presence and absence of dopamine (1.1 nM final). The reaction is then terminated and the cells lysed by adding the d2 detection reagent in lysis buffer (10 microL) and the cryptate reagent in lysis buffer (10 microl) according to manufacturer's instructions. This is then incubated for a further 60 min at room temperature and changes in HTRF fluorescent emission ratio determined according to manufacturer's instructions using an Envision plate reader (Perkin Elmer, Zaventem, Belgium) with laser excitation. All incubations were performed in duplicate and results were compared to a concentration-effect curve to dopamine. (10^−11M to 10^−6M).
Data was analyzed using Excel and PRISM (GraphPad Software) to obtain pEC50 and Erel using the 4-parameter logistic equation (DeLean et al, 1978) where Erel is the fitted maximal response of the test compound minus basal expressed as a percentage relative to that obtained with dopamine which was defined as 100%.

T1 sequence (P21728 whole entry): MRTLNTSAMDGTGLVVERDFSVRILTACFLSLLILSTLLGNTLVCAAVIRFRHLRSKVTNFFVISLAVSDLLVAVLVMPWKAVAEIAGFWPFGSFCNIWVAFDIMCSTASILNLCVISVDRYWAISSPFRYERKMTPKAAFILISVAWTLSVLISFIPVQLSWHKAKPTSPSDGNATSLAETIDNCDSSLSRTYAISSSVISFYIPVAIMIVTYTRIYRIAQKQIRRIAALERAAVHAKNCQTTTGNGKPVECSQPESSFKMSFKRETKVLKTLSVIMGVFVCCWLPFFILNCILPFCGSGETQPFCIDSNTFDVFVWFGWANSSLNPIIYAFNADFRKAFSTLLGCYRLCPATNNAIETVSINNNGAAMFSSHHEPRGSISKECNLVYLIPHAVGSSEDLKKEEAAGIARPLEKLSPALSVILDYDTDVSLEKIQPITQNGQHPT

EC50 [nM] | SMILES
≤ 31.6 | C[C@H]1c2cccc(C(C)(O)C(F)F)c2CCN1C(=O)Cc1c(Cl)ccc2[nH]nc(Cl)c12 (single isomer, unassigned) [Example 6]
31.6 to 100 | C[C@H]1c2cccc(C(C)(O)C(F)F)c2CCN1C(=O)Cc1c(Cl)ccc2nn(C)c(Cl)c12 (single isomer, unassigned) [Example 12]
≤ 31.6 | C[C@H]1c2cccc(C(C)(O)C(F)F)c2CCN1C(=O)Cc1c(Cl)cnc2[nH]nc(Cl)c12 (single isomer, unassigned) [Example 16]
≤ 31.6 | C[C@H]1c2cccc(C(C)(O)C(F)F)c2CCN1C(=O)Cc1c(Cl)cnc2c1c(Cl)nn2C (single isomer, unassigned) [Example 21]
31.6 to 100 | C[C@H]1c2cccc(C(C)(O)C(F)F)c2CCN1C(=O)Cc1c(Cl)ccc2c1c(Cl)nn2C (single isomer, unassigned) [Example 26]
31.6 to 100 | C[C@H]1c2cccc(C(C)(O)C(F)F)c2CCN1C(=O)Cc1c(Cl)c(C2CC2)cn2ncc(Cl)c12 (single isomer, unassigned) [Example 31]
≤ 31.6 | C[C@H]1c2cccc(C(C)(O)C(F)F)c2CCN1C(=O)Cc1c(Cl)c(C#N)cn2ncc(Cl)c12 (single isomer, unassigned) [Example 32]
≤ 31.6 | C[C@H]1c2cccc([C@H](O)C(F)F)c2CCN1C(=O)Cc1c(Cl)ccc2onc(Cl)c12 [Example 1, 2-(3,5-dichloro-1,2-benzoxazol-4-yl)-1-[(1S)-5-[(1S)-2,2-difluoro-1-hydroxy-ethyl]-1-methyl-3,4-dihydro-1H-isoquinolin-2-yl]ethanone]
≤ 31.6 | C[C@H]1c2cccc([C@@](C)(O)CF)c2CCN1C(=O)Cc1c(Cl)ccc2[nH]nc(Cl)c12 [Example 2, 2-(3,5-dichloro-1H-indazol-4-yl)-1-[(1S)-5-[(1R)-2-fluoro-1-hydroxy-1-methyl-ethyl]-1-methyl-3,4-dihydro-1H-isoquinolin-2-yl]ethanone]
≤ 31.6 | C[C@H]1c2cccc([C@](C)(O)CF)c2CCN1C(=O)Cc1c(Cl)ccc2[nH]nc(Cl)c12 [Example 3, 2-(3,5-dichloro-1H-indazol-4-yl)-1-[(1S)-5-[(1S)-2-fluoro-1-hydroxy-1-methyl-ethyl]-1-methyl-3,4-dihydro-1H-isoquinolin-2-yl]ethanone]
≤ 31.6 | C[C@H]1c2cccc([C@@H](O)C(F)F)c2CCN1C(=O)Cc1c(Cl)ccc2[nH]nc(Cl)c12 [Example 4, 2-(3,5-dichloro-1H-indazol-4-yl)-1-[(1S)-5-[(1R)-2,2-difluoro-1-hydroxy-ethyl]-1-methyl-3,4-dihydro-1H-isoquinolin-2-yl]ethanone]
≤ 31.6 | C[C@H]1c2cccc([C@H](O)C(F)F)c2CCN1C(=O)Cc1c(Cl)ccc2[nH]nc(Cl)c12 [Example 5, 2-(3,5-dichloro-1H-indazol-4-yl)-1-[(1S)-5-[(1S)-2,2-difluoro-1-hydroxy-ethyl]-1-methyl-3,4-dihydro-1H-isoquinolin-2-yl]ethanone]
≤ 31.6 | C[C@H]1c2cccc([C@@H](O)C(F)F)c2CCN1C(=O)Cc1c(Cl)ccc2nn(C)c(Cl)c12 [Example 8, 2-(3,5-dichloro-2-methyl-indazol-4-yl)-1-[(1S)-5-[(1R)-2,2-difluoro-1-hydroxy-ethyl]-1-methyl-3,4-dihydro-1H-isoquinolin-2-yl]ethanone]
31.6 to 100 | C[C@H]1c2cccc([C@H](O)C(F)F)c2CCN1C(=O)Cc1c(Cl)ccc2nn(C)c(Cl)c12 [Example 9, 2-(3,5-dichloro-2-methyl-indazol-4-yl)-1-[(1S)-5-[(1S)-2,2-difluoro-1-hydroxy-ethyl]-1-methyl-3,4-dihydro-1H-isoquinolin-2-yl]ethanone]
31.6 to 100 | C[C@H]1c2cccc([C@@H](O)C(F)F)c2CCN1C(=O)Cc1c(Cl)ccc2c1c(Cl)nn2C [Example 10, 2-(3,5-dichloro-1-methyl-indazol-4-yl)-1-[(1S)-5-[(1R)-2,2-difluoro-1-hydroxy-ethyl]-1-methyl-3,4-dihydro-1H-isoquinolin-2-yl]ethanone]
31.6 to 100 | C[C@H]1c2cccc([C@H](O)C(F)F)c2CCN1C(=O)Cc1c(Cl)ccc2c1c(Cl)nn2C [Example 11, 2-(3,5-dichloro-1-methyl-indazol-4-yl)-1-[(1S)-5-[(1S)-2,2-difluoro-1-hydroxy-ethyl]-1-methyl-3,4-dihydro-1H-isoquinolin-2-yl]ethanone]
≤ 31.6 | C[C@H]1c2cccc([C@](C)(O)CF)c2CCN1C(=O)Cc1c(Cl)cnc2[nH]nc(Cl)c12 [Example 14, 2-(3,5-dichloro-1H-pyrazolo[3,4-b]pyridin-4-yl)-1-[(1S)-5-[(1S)-2-fluoro-1-hydroxy-1-methyl-ethyl]-1-methyl-3,4-dihydro-1H-isoquinolin-2-yl]ethanone]
≤ 31.6 | C[C@H]1c2cccc([C@@](C)(O)CF)c2CCN1C(=O)Cc1c(Cl)cnc2[nH]nc(Cl)c12 [Example 15, 2-(3,5-dichloro-1H-pyrazolo[3,4-b]pyridin-4-yl)-1-[(1S)-5-[(1R)-2-fluoro-1-hydroxy-1-methyl-ethyl]-1-methyl-3,4-dihydro-1H-isoquinolin-2-yl]ethanone]
31.6 to 100 | C[C@H]1c2cccc(C(O)(CF)CF)c2CCN1C(=O)Cc1c(Cl)cnc2[nH]nc(Cl)c12 [Example 18, 2-(3,5-dichloro-1H-pyrazolo[3,4-b]pyridin-4-yl)-1-[(1S)-5-[2-fluoro-1-(fluoromethyl)-1-hydroxy-ethyl]-1-methyl-3,4-dihydro-1H-isoquinolin-2-yl]ethanone]
31.6 to 100 | C[C@H]1c2cccc([C@@](C)(O)CF)c2CCN1C(=O)Cc1c(Cl)cnc2c1c(Cl)nn2C [Example 19, 2-(3,5-dichloro-1-methyl-pyrazolo[3,4-b]pyridin-4-yl)-1-[(1S)-5-((1R)-2-fluoro-1-hydroxy-1-methyl-ethyl)-1-methyl-3,4-dihydro-1H-isoquinolin-2-yl]ethanone]
≤ 31.6 | C[C@H]1c2cccc([C@](C)(O)CF)c2CCN1C(=O)Cc1c(Cl)cnc2c1c(Cl)nn2C [Example 20, 2-(3,5-dichloro-1-methyl-pyrazolo[3,4-b]pyridin-4-yl)-1-[(1S)-5-((1S)-2-fluoro-1-hydroxy-1-methyl-ethyl)-1-methyl-3,4-dihydro-1H-isoquinolin-2-yl]ethanone]
31.6 to 100 | C[C@H]1c2cccc(C(O)(CF)CF)c2CCN1C(=O)Cc1c(Cl)cnc2c1c(Cl)nn2C [Example 23, 2-(3,5-dichloro-1-methyl-pyrazolo[3,4-b]pyridin-4-yl)-1-[(1S)-5-[2-fluoro-1-(fluoromethyl)-1-hydroxy-ethyl]-1-methyl-3,4-dihydro-1H-isoquinolin-2-yl]ethanone]
31.6 to 100 | C[C@H]1c2cccc([C@@](C)(O)CF)c2CCN1C(=O)Cc1c(Cl)ccc2c1c(Cl)nn2C [Example 24, 2-(3,5-dichloro-1-methyl-indazol-4-yl)-1-[(1S)-5-[(1R)-2-fluoro-1-hydroxy-1-methyl-ethyl]-1-methyl-3,4-dihydro-1H-isoquinolin-2-yl]ethanone]
31.6 to 100 | C[C@H]1c2cccc([C@](C)(O)CF)c2CCN1C(=O)Cc1c(Cl)ccc2c1c(Cl)nn2C [Example 25, 2-(3,5-dichloro-1-methyl-indazol-4-yl)-1-[(1S)-5-[(1S)-2-fluoro-1-hydroxy-1-methyl-ethyl]-1-methyl-3,4-dihydro-1H-isoquinolin-2-yl]ethanone]
≤ 31.6 | C[C@H]1c2cccc(C(O)(CF)CF)c2CCN1C(=O)Cc1c(Cl)ccc2c1c(Cl)nn2C [Example 28, 2-(3,5-dichloro-1-methyl-indazol-4-yl)-1-[(1S)-5-[2-fluoro-1-(fluoromethyl)-1-hydroxy-ethyl]-1-methyl-3,4-dihydro-1H-isoquinolin-2-yl]ethanone]
≤ 31.6 | C[C@H]1c2cccc([C@](C)(O)CF)c2CCN1C(=O)Cc1c(Cl)ccn2ncc(Cl)c12 [Example 29, 2-(3,5-dichloropyrazolo[1,5-a]pyridin-4-yl)-1-[(1S)-5-[(1S)-2-fluoro-1-hydroxy-1-methyl-ethyl]-1-methyl-3,4-dihydro-1H-isoquinolin-2-yl]ethanone]
